Assay results from article PMC3964211, “Pharmacokinetic modeling optimizes inhibition of the ‘undruggable’ EWS-FLI1 transcription factor in Ewing Sarcoma” (Oncotarget, 2013).

Assays:
caveolin-1 = assay: Caveolin-1 IHC staining of xenograft tumors; format: in vivo, SCID/bg mice; settings: xenograft tumors of mice treated BID IP 400 mg/kg, 3 days
Method: We evaluated the effect of EWS-FLI1 in animals treated with YK-4-279 upon caveolin-1, a recognized direct gene target whose expression is increased by EWS-FLI1 [22, 23]. […] In addition, the staining pattern changes from membraneous to a more diffuse pattern (Figure 5A).
Two million A4573 or SK-ES Ewing's sarcoma cells in 0.1 mL were injected into an orthotopic paraosseous location, adjacent to the left proximal tibia, in 5-week-old female severe combined immunodeficient-beige (SCID/bg) mice (Harlan Laboratories, Inc., Indianapolis, IN). After primary tumors reached 250 – 300 mm^3 size, mice were randomized and received intraperitoneal injection (IP) with vehicle control (0.25% Lecithin solution or DMSO), (S)-YK-4-279, (R)-YK-4-279 or racemic YK-4-279 at a dose of 400 mg/kg twice a day (BID) for 7 days in a week. The tumor volume was determined by the formula (D × d2/6) × p, where D was the longer diameter and d was the shorter diameter. Tumor volume was monitored every day by caliper until the tumor size reaches 1cm^3. Mice were euthanized and primary tumors were collected. […]
Five micron sections from formalin fxed paraffin embedded tissues were de-paraffinized with xylenes and rehydrated through a graded alcohol series. […] The sections were evaluated, in blinded fashion two times, by a pathologist (B.K.).

[1] = Pharmacokinetics in SD rats, single oral gavage; format: in vivo, Sprague-Dawly (SD) rats; settings: analyte (S)-YK-4-279 in plasma
Method: To optimize dosing in animals, we determined the pharmacokinetics of YK-4-279 and its single enantiomers in Sprague-Dawly (SD) rats. Three rats of each gender were assigned to nine dose groups. Animals in Groups 1 through 3 received a single intravenous (IV) injection of racemic mixture, (S)-YK-4-279, or (R)-YK-4-279 at a dose of 25 mg/kg. Animals in Groups 4 through 9 received a single oral gavage administration of racemic mixture, (S)-YK-4-279, or (R)-YK-4-279 at a dosage level of 25 or 50 mg/kg. […] However, given that approximately 50 percent of the racemic mixture is (S)-YK-4-279 and the clearance […] the dose, the IV clearance of (S)-YK-4-279 is considered to be similar whether a racemic mixture or only (S)-YK-4-279 is administered. Systemic exposure to (S)-YK-4-279 was evaluated using Cmax and AUC values. Cmax and AUC8 values were similar between males and females for a given dose group. With an expected enantiomer ratio of 1:1 in the racemic dose, Group 2 animals would have received a 2-fold higher dose of (S)-YK-4-279 than Group 1 animals. […] Absolute bioavailability of (S)-YK-4-279 following gavage administration, using cremophor/ethanol as an excipient, in SD rats was only 2–6% (Table 2).
Nine SD rats of each gender were assigned to nine dose groups. Groups 1 through 3 received a single IV injection of racemic mixture, (S)-YK-4-279, or (R)-YK-4-279 at a dose of 25 mg/kg. Groups 4 through 9 received a single gavage administration of racemic mixture, (S)-YK-4-279, or (R)-YK-4-279 at a dosage level of 25 or 50 mg/kg. Blood samples were collected from one animal per group per time point at target time points of pre-dose, 5, 15, 30 and 60 minutes, and 2, 4, 8 and 12 hours following dosing. Plasma was obtained from the samples and analyzed for (S) and (R)-YK-4-279 concentrations.
The plasma and tumor sample analysis was performed using calibration standards and Quality Control (QC) samples prepared in control rat or mouse plasma and tumor tissues. Plasma and tumor calibration standards were prepared from stock solutions of YK-4-279. The calibration standards, blanks, QC samples, and study samples were then processed by solid-liquid extraction (SLE) followed by analysis using liquid chromatography with mass spectrometry (LC-MS). The LC-MS systems used for the analysis of YK-4-279 was composed of Shimadzo prominence pump and auto-sampler (Kyoto, Japan), a Sciex API 5000 MS (Toronto, Ontario), with turbo ion spary in the positive ion mode. The samples for the analysis of total YK-4-279 were injected into a 50 × 2 mm Gemini- NX, 5 ¼m column (Phenomenex, Torrance, CA). The samples for the analysis of the specific enantiomers of YK-4-279 were injected into a 150 × 2 mm Lux Cellulose-2, 3 ¼m Phenomenex column. The transitions monitored were 366 amu to 135 amu for YK-4-279 and 369 amu to 138 amu for the YK-4-279-d3 internal standard. YK-4-279 concentrations were calculated using peak area response ratios and a regression equation constructed from the concentrations and peak area response ratios of the calibration standards. The lower limit of quantitation was 5.0 ng/mL in plasma and […] in tumor tissue. The concentration-time profiles were evaluated by compartmental modeling and non-compartmental analysis using WinNonlin (Pharsight Corporation, Mountain View, CA). The PK parameters obtained from the compartmental modeling were used in simulations to identify optimal dose level and dosing schedule for maintaining plasma concentration of (S)-YK-4-279 above 3 ¼M.

[2] = female (n=9), oral gavage 25 mg/kg
[3] = female (n=9), oral gavage 50 mg/kg
[4] = male (n=9), oral gavage 25 mg/kg
[5] = male (n=9), oral gavage 50 mg/kg

Structure (SMILES)	Caveolin-1 immunohistochemical staining (caveolin-1)	AUClast [1, 2]	AUC∞ [1, 2]	Absolute Bioavailability [1, 2]	Apparent Clearance [1, 2]	Observed Cmax [1, 2]	Observed Tmax [1, 2]	Terminal Elimination Half-Life [1, 2]	AUClast [1, 3]	AUC∞ [1, 3]	Absolute Bioavailability [1, 3]	Apparent Clearance [1, 3]	Observed Cmax [1, 3]	Observed Tmax [1, 3]	Terminal Elimination Half-Life [1, 3]	AUClast [1, 4]	AUC∞ [1, 4]	Absolute Bioavailability [1, 4]	Apparent Clearance [1, 4]	Observed Cmax [1, 4]	also measured
COc1ccc(C(=O)C[C@]2(O)C(=O)Nc3c(Cl)ccc(Cl)c32)cc1 [(R)-YK-4-279]	expected membrane caveolin-1 expression	BLOQ	BLOQ	BLOQ	BLOQ	BLOQ	BLOQ	BLOQ	BLOQ	BLOQ	BLOQ	BLOQ	BLOQ	BLOQ	BLOQ	BLOQ	BLOQ	BLOQ	BLOQ	BLOQ1	Observed Tmax [1, 4]: BLOQ; Terminal Elimination Half-Life [1, 4]: BLOQ; AUClast [1, 5]: BLOQ; AUC∞ [1, 5]: BLOQ; Absolute Bioavailability [1, 5]: BLOQ; Apparent Clearance [1, 5]: BLOQ; Observed Cmax [1, 5]: BLOQ; Observed Tmax [1, 5]: BLOQ; Terminal Elimination Half-Life [1, 5]: BLOQ
COc1ccc(C(=O)CC2(O)C(=O)Nc3c(Cl)ccc(Cl)c32)cc1 (stereo not shown) [YK-4-279]	reduced caveolin-1 staining	1.07 hr*¼M	1.31 hr*¼M	5.06%	52,200 mL/hr/kg	0.513 ¼M	30 min	1.56 h	3.09 hr*¼M	3.14 hr*¼M	6.07%	43,400 mL/hr/kg	0.647 ¼M	30 min	1.97 h	0.563 hr*¼M	0.754 hr*¼M	2.83%	90,300 mL/hr/kg	0.142 ¼M	Observed Tmax [1, 4]: 60 min; Terminal Elimination Half-Life [1, 4]: 3.84 h; AUClast [1, 5]: 1.04 hr*¼M; AUC∞ [1, 5]: 1.18 hr*¼M; Absolute Bioavailability [1, 5]: 2.21%; Apparent Clearance [1, 5]: 116,000 mL/hr/kg; Observed Cmax [1, 5]: 0.241 ¼M; Observed Tmax [1, 5]: 120 min; Terminal Elimination Half-Life [1, 5]: 4.23 h
